Source: patent US5792799A, “Parenteral delivery of MAO A inhibitors” (Athena Neurosciences, Inc., priority 1996, dated 1998)
Several values for one entry are separate records, joined by “and”; a condition that tells them apart may be missing. Equal values may be shown once.

Columns and labels:
MAO A [1] = assay: MAO A activity in mouse striatum, liver and gut after subcutaneous clorgyline (Example 1); type: in vivo, C57BL/6 mice
Procedure: All experiments were performed in strict accordance with the National Institutes of Health (NIH) Guide for the Care and Use of Laboratory Animals. C57BL/6 mice were housed under constant temperature (22° C.) and humidity conditions in a room illuminated for 12 hours per day, with food and water freely available. […] Animals were sacrificed five hours after drug administration. Brains were removed, and dissection of the striata was performed within two minutes of cervical dislocation. Tissues were collected in buffer (pH 7.2), sonicated for approximately 10 seconds, and stored at -70° C. Similar procedures were used to collect, homogenize and store samples from the liver and gut of the animals.
(§1) MAO A and MAO B activity were measured as previously described (Yu and Hertz, J. Neurochem. 39:1492-5 (1982)), using 14C-phenylethylamine and 14C-5-hydroxytryptamine as selective substrates for MAO B and MAO A, respectively. Preliminary experiments were performed to ensure that enzyme activity was linear with respect to time and enzyme concentration, and that no more than 10-20% of the substrate was consumed during the incubation period (data not shown). Protein was measured by the method of Lowry et al. (J. Biol. Chem. 193:265-75 (1951)).

MAO A [2] = assay: Comparison of parenteral (s.c.) and oral clorgyline on MAO A activity in striatum, gut and liver (Example 2); type: in vivo, mice; details: for MAO activity in the striatum, % of control values: mouse striatum; for extent of inhibition of intestinal MAO A activity: mouse intestine
Procedure: as §1

MAO A [3] = assay: Effect of repeated s.c. or oral administration of clorgyline on MAO A activity in striatum, intestine and liver (Example 3); type: in vivo, mice; details: for MAO A inhibition in the liver: single or multiple
Procedure: as §1
MAO A activity was measured and compared in the striatum, intestine and liver.

[4] = 0.6 mg/kg parenteral (s.c.), 5 h
[5] = 0.6 mg/kg, s.c. or oral, mouse liver
[6] = 0.6 mg/kg oral, single administration, 5 h

In the case of `C#CCN(C)CCCOc1ccc(Cl)cc1Cl` [clorgyline], the “MAO A activity remaining in the gut” value (MAO A [1]; 0.6 mg/kg s.c., 5 h after dose, mouse gut) is reported as 50% and > 50%, the “MAO A activity remaining in the liver” value (MAO A [1]; 0.6 mg/kg s.c., 5 h after dose, mouse liver) is reported as over 50% and the “inhibition of MAO A activity in the striatum” value (MAO A [1]; 0.6 mg/kg s.c., 5 h after dose, mouse striatum) is reported as 90% and > 90%. For the same compound, the “MAO A inhibition in the gut” value (MAO A [1]; 0.6 mg/kg s.c., mouse gut) was “approximately 50%”, the “MAO A inhibition in the liver” value (MAO A [1]; 0.6 mg/kg s.c., mouse liver) was “approximately 50%” and the “MAO A activity in the gut” value (MAO A [1]; 0.8 mg/kg s.c., 5 h after dose, mouse gut) was 31%. For the same compound, the “MAO A activity in the liver” value (MAO A [1]; 0.8 mg/kg s.c., 5 h after dose, mouse liver) was “about 50%”, the “MAO activity in the gut, % of control” value (MAO A [1]; 1 mg/kg s.c., 5 h after dose, mouse gut) was 27 % of control and the “MAO activity in the liver, % of control” value (MAO A [1]; 1 mg/kg s.c., 5 h after dose, mouse liver) was 51 % of control. The “MAO A inhibition in the striatum” value (MAO A [1]; 1 mg/kg s.c., 5 h after dose, mouse striatum) was over 90%, the “MAO activity in the striatum, % of control values” (MAO A [2]; 0.6 mg/kg oral gavage, 5 h) was 40 % of control and the “extent of inhibition of intestinal MAO A activity” value (MAO A [2]; 0.6 mg/kg oral, 5 h) was 89%. For the same compound, the “extent of inhibition of intestinal MAO A activity” value (MAO A [2]; [4]) was 55%, the “MAO activity in the striatum, % of control values” (MAO A [2]; [4]) was 11 % of control and the “MAO A activity maintained in the gut” value (MAO A [2]; 0.6 mg/kg parenteral injection, mouse gut) was 50%. The “difference in extent of inhibition of MAO A activity in the liver, oral compared with subcutaneous” value (MAO A [2]; 0.6 mg/kg, 5 h, mouse liver) was “No significant difference”, the “MAO A activity present in the liver after clorgyline exposure” value (MAO A [2]; [5]) was “more than 50%” and the “intestine MAO A, % of control activity” value (MAO A [3]; 0.6 mg/kg oral, multiple administration (five, every 24 h), 5 h after last) was ~15 % of control. For the same compound, the “intestine MAO A, % of control activity” value (MAO A [3]; [6]) was “Approximately 20 % of control”, the “striatal MAO A inhibition” value (MAO A [3]; [6]) was 15% and the “MAO A inhibition in the liver” value (MAO A [3]; 0.6 mg/kg oral) was at most 25%. For the same compound, the “striatal MAO A residual activity, % of control” value (MAO A [3]; 0.6 mg/kg per os, multiple treatments (five, every 24 h), 5 h after last) was “about 50 % of control”, the “striatal MAO A activity, % of the control value” (MAO A [3]; 0.6 mg/kg s.c., five consecutive treatments every 24 h, 5 h after last) was 2 % of control and the “inhibition of intestinal MAO A” value (MAO A [3]; 0.6 mg/kg s.c., injected once, 5 h) was 50%. For the same compound, the “striatal MAO A inhibition” value (MAO A [3]; 0.6 mg/kg s.c., single administration, 5 h) was “approximately 90%”, the “MAO A inhibition in the liver” value (MAO A [3]; 0.6 mg/kg subcutaneous) was at most 25% and the “change in extent of MAO inhibition in the liver, single versus multiple treatments” value (MAO A [3]; [5]) was “no significant changes”.
